In patent US20190015400A1, “Antifungal Compositions” (priority 2017, published 2019):
Entries after “also recorded” stand apart in the source; their conditions may differ.

Assays:
[1] = system: Aspergillus terreus ATCC MYA-3633 (strain I); test: MIC and checkerboard assay, azoles + compounds 1-5; format: cell-based; conditions: in combination with POS
Description: (§1) These compounds were serially diluted (two-fold dilutions) horizontally on the plate in 100 μL of RPMI medium. A diluted yeast culture (25 μL of a fungal stock with OD600 of 0.125 in 10 mL of RPMI medium, which achieves a final inoculum size of around 1-5×10^3 CFU/mL) was plated across the plate (100 μL per well), making a final volume of 200 μL total per well.
(§2) The appropriate range of concentrations for each compound was determined based on their corresponding MIC values against each fungal strain. The inoculum size for yeast and filamentous fungi were the same as in the MIC experiments described in section 2.2. The 96-well plates were incubated at 35° C. for 48 h for yeasts and 72 h for the Aspergillus strain before visual inspection for growth. […] The combinational effect of the two tested compounds were considered synergistic (abbreviated SYN) if FICI<0.5, additive (abbreviated ADD) if 0.5<FICI<4, and antagonistic if FICI>4 (TABLES 2-4).

[2] = system: C. albicans ATCC 64124 (strain F); test: MIC and checkerboard assay, azoles + compounds 1-5; format: cell-based, Candida albicans; conditions: for fold reduction in MIC (combination vs alone): reduction for the labelled drug; for MICalone: drug alone; for MIC in combination: MIC of the labelled drug
Description: as §1, §2

[3] = system: C. albicans ATCC 10231 (strain B); test: MIC and checkerboard assay, azoles + compounds 1-5; format: cell-based, Candida albicans
Description: as §1, §2

[4] = system: C. glabrata ATCC 2001 (strain H); test: MIC and checkerboard assay, azoles + compounds 1-5; format: cell-based, Candida glabrata
Description: as §1, §2

[5] = system: C. albicans ATCC 10231 (strain B) biofilm; test: Biofilm disruption assay (XTT, SMIC90), POS and EBA; format: cell-based, Candida albicans; conditions: drug alone
Description: (§3) Biofilm disruption assays. […] Biofilm assays were performed in 96-well plates using XTT [2,3-bis(2-methoxy-4-nitro-5-sulfophenyl)-2H-tetrazolium-5-carboxanilide] to measure the viability of the biofilm as previously described. An overnight culture of yeast was grown at 35° C. in YEPD medium with shaking at 200 rpm. The overnight culture was diluted in RPMI 1640 medium to an OD600 between 0.12 and 0.15 to make a working stock. Working stock was transferred to the 96-well plate in 100 μL aliquots, leaving one column empty for the sterile control. The plates were incubated at 37° C. for 24 h to allow formation of the biofilm. The medium and planktonic cells from the plate were then aspirated. PBS was then used to wash any remaining planktonic cells off of the biofilm wells. 100 μL of PBS was aliquoted into wells and then removed. The wells were washed 3 times with PBS. […] Plates were incubated at 37° C. for 24 h. Finally, the plates were washed 3 times with PBS before adding 100 μL of XTT dye. The XTT was prepared by dissolving XTT at 0.5 mg/mL concentration in sterile PBS. Before adding to a plate, 1 μL of 10 mM menadione in acetone was added to 10 mL of the 0.5 mg/mL solution of XTT. After addition of XTT (containing menadione), the plates were incubated at 3 h at 37° C. in the dark. 80 μL of liquid from each well was transferred to a new plate. Plates were then read with a SpectraMax M5 plate reader (Molecular Devices, Sunnyvale, Calif., USA) for absorbance at 450 nm. For these experiments, we determined the sessile MIC (SMIC90), which is defined as the drug concentration required to inhibit the metabolic activity of biofilm by 90% compared to the growth control. The SMIC90 values were used to calculate the FICI as described above (TABLE 10). The plates used to determine the SMIC90 are provided in FIGS. 91A-H. Each assay was performed in duplicate.

[6] = system: C. glabrata ATCC 2001 (strain H) biofilm; test: as above; format: cell-based, Candida glabrata; conditions: drug alone
Description: as §3

[7] = system: C. albicans ATCC 64124 (strain F) biofilm; test: Biofilm disruption assay (XTT, SMIC99), azoles + compound 2; format: cell-based, Candida albicans; conditions: for FICI / Interp.: biofilm
Description: In order to investigate the synergistic effect of azoles and our compounds on inhibiting biofilm formation of C. albicans ATCC 64124 (strain F), we performed a biofilm disruption assay in a checkerboard setup and used XTT [2,3-bis(2-methoxy-4-nitro-5-sulfophenyl)-2H-tetrazolium-5-carboxanilide] reduction to examine the metabolic activity of the biofilm. Briefly, C. albicans ATCC 64124 (strain F) was grown overnight in YEPD broth at 35° C. The culture was then diluted to an OD600 of 0.12 (equivalent to 1×10^6 CFU/mL) and 100 μL was placed into each well of a 96-well plate. The cells were incubated at 37° C. for 24 h for growth. The following day, the spent medium containing planktonic cells was aspirated and each wells were carefully washed three times with sterile phosphate buffer saline (PBS). […] The negative control (medium only) and the positive control (biofilm plus medium) wells were also included in the same 96-well plate. The plates were then incubated at 37° C. statically for additional 24 h and then washed with sterile PBS. 100 μL of a XTT (0.5 mg/mL)/menadione (1 μM) solution was added to each well, covered with aluminum foil, and incubated for 2 h at 37° C. Then, 80 μL of the colored supernatant from each well was transferred to a new 96-well plate, and the absorption was read at OD490. The percent metabolic activity of the formed biofilm at various drug concentration combinations was calculated by dividing the metabolic activity of biofilm formed for that well by that of the biofilm formed in the growth control well (in the absence of any drug). For these experiments, the sessile MIC (SMIC99) was determined, which is defined as the drug concentration required to inhibit the metabolic activity of biofilm by 99% compared to the growth control. The assay for each combination was performed in duplicates.

[8] = system: C. albicans ATCC 64124 (strain F); test: Time-kill assay, azoles + compound 2; format: cell-based, Candida albicans
Description: Each sample was incubated at 35° C. with shaking at 200 rpm. At various time points (0, 3, 6, 9, 12, and 24 h), 100 μL aliquots were taken from each sample and serially diluted (10-fold dilutions) in sterile ddH2O. 100 μL of each dilution was spread onto PDA plates and incubated at 35° C. for 48 h before colony counts were determined (FIGS. 2A-B). At the end of the 24-h experiment, 50 μL of 1 mM sterile resazurin solution was added to each sample for visual comparison of growth. Each experiment was performed in duplicate.

[9] = system: C. albicans ATCC 90819 (strain G); test: MIC and checkerboard assay, azoles + compounds 1-5; format: cell-based, Candida albicans
Description: as §1, §2

[10] = system: J774A.1 cells; test: Mammalian cytotoxicity assay, azoles and compound 2
From the text: (§4) David K. Orren (University of Kentucky, Lexington, Ky.) and Prof. David J. Feola (University of Kentucky, Lexington, Ky.), respectively.

[11] = system: BEAS-2B cells; test: as above; format: cell-based, human
From the text: as §4

[12] = system: HEK-293 cells; test: as above; format: cell-based, human
From the text: as §4

[13] = combination with POS at 8×MICcombo
[14] = combination with VOR at 8×MICcombo
[15] = azole 16 μg/mL + 8 μg/mL compound 2
[16] = azole at any concentration + 32 μg/mL compound 2
[17] = drug alone, up to highest concentration tested (azoles 16 μg/mL, compound 2 64 μg/mL)

In the case of `COc1ccc(C(=O)CCCN2CCC(O)(c3ccc(Br)cc3)CC2)cc1` [Compound 5], the “combinational effect (FICI interpretation)” value (“combinational effect” below) [1] is reported as “synergistic”, the “fold reduction in MIC (combination vs alone)” value ([2]; combination compound 5 + VOR) is reported as 16 fold and the MICalone [2] is reported as greater than 128 µg/mL. For the same compound, the FICI ([2]; in combination with POS) was 0.13, the “combinational effect” value ([2]; in combination with POS) was “synergistic interactions” and the “combinational effect” value ([2]; in combination with VOR) was “strong additive effect”. The “combinational effect” value ([3]; in combination with VOR) was “Partial synergy” and the “combinational effect” value ([4]; in combination with POS) was “partial synergy”.
Compound `C[C@@H]1[C@H](O)[C@@H](C)/C=C/C=C/C=C/C=C/C=C/C=C/C=C/[C@H](O[C@@H]2O[C@H](C)[C@@H](O)[C@H](N)[C@@H]2O)C[C@@H]2O[C@](O)(C[C@@H](O)C[C@@H](O)[C@H](O)CC[C@@H](O)C[C@@H](O)CC(=O)O[C@H]1C)C[C@H](O)[C@H]2C(=O)O` [AMB, amphotericin B] has an SMIC90 [5] greater than 32 µg/mL and an SMIC90 [6] of 4 µg/mL.
For `O=C(CCCN1CCC(O)(c2ccc(Br)cc2)CC1)c1ccc(Cl)cc1` [Compound 3], the “combinational effect” value ([2]; in combination with KTC) was “partial synergy”, the “combinational effect” value ([2]; in combination with POS) was “synergy; also recorded: synergistic interactions” and the “combinational effect” value ([2]; in combination with VOR) was “partial synergy; also recorded: synergistic interactions”. The “combinational effect” value ([3]; in combination with KTC) was “partial synergy”, the “combinational effect” value ([3]; in combination with POS) was “partial synergy” and the “combinational effect” value ([3]; in combination with VOR) was “partial synergy”.
In the case of `O=C(CCCN1CCC(O)(c2ccc(Br)cc2)CC1)c1ccc(F)cc1` [Compound 2, bromperidol], the FICI ([7]; in combination with POS) is reported as 1.02, the Interp. ([7]; in combination with POS) is reported as “ADD*” and the FICI ([7]; in combination with VOR) is reported as 1.02. The Interp. ([7]; in combination with VOR) was “ADD*”, the “SMIC alone (μg/mL) Cpd” value ([7]; compound alone, sessile cells) was greater than 128 µg/mL and the “SMIC combo (μg/mL) Cpd” value ([7]; compound in combination with POS) was 128 µg/mL. The “SMIC combo (μg/mL) Cpd” value ([7]; compound in combination with VOR) was 128 µg/mL, the “combinational effect” value [1] was “synergy; also recorded: synergistic” and the “CFU/mL throughout 24 h” value [8, 13] was “around 1×10^5 CFU/mL”. The time-kill effect [8, 13] was “fungistatic effect”, the “reduction in CFU/mL over 24 h” value [8, 14] was “about 1 log10 unit” and the time-kill effect [8, 14] was “fungistatic effect”. The “increase in CFU/mL” value ([8]; drug alone at the concentration of the 8×MICcombo sample, 24 h) was “about 1 order of magnitude”, the MIC in combination ([2]; combination compound 2 + ITC) was 64 µg/mL and the MIC in combination ([2]; combination compound 2 + POS) was 4 µg/mL. For the same compound, the MICalone [2] was 128 µg/mL, the FICI ([2]; in combination with ITC) was 0.56 and the “combinational effect” value ([2]; in combination with ITC) was “partial synergy”. The “combinational effect” value ([2]; in combination with KTC) was “partial synergy”, the FICI ([2]; in combination with POS) was 0.16 and the “combinational effect” value ([2]; in combination with POS) was “synergy”. The “combinational effect” value ([2]; in combination with VOR) was “synergy”, the “combinational effect” value ([3]; in combination with ITC) was “partial synergy” and the “combinational effect” value ([3]; in combination with KTC) was “partial synergy”. For the same compound, the “combinational effect” value ([3]; in combination with POS) was “partial synergy”, the “combinational effect” value ([3]; in combination with VOR) was “partial synergy” and the “combinational effect” value ([9]; in combination with POS) was “synergy”. For the same compound, the “combinational effect” value ([9]; in combination with VOR) was “synergy”, the “combinational effect” value ([4]; in combination with POS) was “partial synergy” and the “combinational effect” value ([4]; in combination with VOR) was “partial synergy”. It also gave a cell survival ([10]; drug alone at 16 μg/mL) of 72±14%, a cell survival ([10]; drug alone at 32 μg/mL) of 50±7% and a cell survival ([10]; drug alone at 64 μg/mL) of 30±4%. The “highest concentration at which no cytotoxicity was observed” value ([10]; drug alone, stated for all three cell lines (BEAS-2B, HEK-293, J774A.1), J774A.1 limiting) was 8 µg/mL.
For `O=C(CCCN1CCC(O)(c2ccc(Br)cc2)CC1)c1ccc(Br)cc1` [Compound 4], the “combinational effect” value ([2]; in combination with KTC) was “partial synergy”, the “combinational effect” value ([2]; in combination with POS) was “synergistic interactions” and the “combinational effect” value ([2]; in combination with VOR) was “Partial synergy”. For the same compound, the “combinational effect” value ([3]; in combination with KTC) was “partial synergy” and the “combinational effect” value ([4]; in combination with POS) was “synergistic; also recorded: strong synergy”.
`C[C@@H](c1ncncc1F)[C@](O)(Cn1cncn1)c1ccc(F)cc1F` [VOR, voriconazole] was tested, and the “SMIC alone (μg/mL) Azole” value ([7]; azole alone, sessile cells) was greater than 32 µg/mL, the “SMIC combo (μg/mL) Azole” value ([7]; azole in combination with compound 2) was 0.5 µg/mL and the cytotoxicity [11, 15] was “no toxicity”. For the same compound, the cytotoxicity [11, 16] was “no toxicity”, the cytotoxicity [11, 17] was “No cytotoxic effect” and the cytotoxicity [12, 15] was “no toxicity”. For the same compound, the cytotoxicity [12, 16] was “no toxicity”, the cytotoxicity [12, 17] was “No cytotoxic effect” and the MIC in combination ([2]; combination compound 5 + VOR) was 2 µg/mL. The cytotoxicity [10, 15] was “no toxicity” and the cytotoxicity ([10]; drug alone, any concentration tested (up to 16 μg/mL)) was “No cytotoxic effect”.
For `O=C(CCCN1CCC(O)(c2ccc(Br)cc2)CC1)c1ccccc1` [Compound 1], the “combinational effect” value ([2]; in combination with POS) was “synergy; also recorded: synergistic interactions”, the “combinational effect” value ([2]; in combination with VOR) was “partial synergy” and the “combinational effect” value ([3]; in combination with POS) was “partial synergy”. The “combinational effect” value ([3]; in combination with VOR) was “partial synergy”, the “combinational effect” value ([4]; in combination with POS) was “partial synergy” and the “combinational effect” value ([4]; in combination with VOR) was “strong additive effect”.
For `CCC(C)n1ncn(-c2ccc(N3CCN(c4ccc(OCC5COC(Cn6cncn6)(c6ccc(Cl)cc6Cl)O5)cc4)CC3)cc2)c1=O` (centres unmarked) [ITC, itraconazole], the MIC in combination ([2]; combination compound 2 + ITC) was 2 µg/mL and the “fold reduction in MIC (combination vs alone)” value ([2]; combination compound 2 + ITC) was 16 fold.
